For one data set, the system named is HIV-IIIb. Nature of the data set: Test A: Antiviral assay in MT4 Cells. The following applies: Human immunodeficiency virus 1, 120 h; 2 μM drug concentration; MT4 cells infected with HIV-IIIb, 5 days; calculated from dose response curve; values normalized to 100% where greater than 100; read-out: % Inhibition at 2 μM (percent inhibition of virus-induced cell killing). The data set is classed as cell-based, HIV-1. Here is the method: (§1) For the antiviral assay, 40 μL of a concentration required to achieve a final effective 1× test concentration of 3-fold serially diluted compound in culture medium with 10% FBS was added to each well of a 384-well plate (10 concentrations) in quadruplicate. MT4 cells were next mixed with HIV-IIIb at an m.o.i of 0.003 for 1 hour, after which time 35 μL of virus/cell mixture (2000 cells) was immediately added to each well containing 40 μL of diluted compound. The plates were then incubated at 37° C. for 5 days. After 5 days of incubation, 25 μl of 2× concentrated CellTiter-Glo™ Reagent (catalog # G7571, Promega Biosciences, Inc., Madison, Wis.) was added to each well containing MT-4 cells. Cell lysis was carried out by incubating at room temperature for 10 min and then chemiluminescence was read. EC50 values were calculated as the compound concentration that caused a 50% decrease in luminescence signal, a measure of HIV-1 replication. Percent inhibition of virus-induced cell killing calculated from the dose response curve at 2 μM drug concentration is shown in the table below.

Data set [1] is described as follows: Test B: Cytotoxicity Assay. The conditions noted are these: human, uninfected MT4 cells, same protocol as Test A. The format is cell-based. Here is the method: as §1, with “below. Compound cytotoxicity and the corresponding CC50 values was determined using the same protocol as described in the antiviral assay (Test A) except that uninfected cells were used.” for “below.”

In the case of `CN(C)c1ccc(N(C)C(=O)[C@H](Cc2ccccc2)NC(=O)Cn2nc(C(F)(F)F)c3c2CCCC3)cc1` [Compound 23, (S)—N-(4-(dimethylamino)phenyl)-N-methyl-3-phenyl-2-(2(3-(trifluoromethyl)-4,5,6,7-tetrahydro-1H-indazol-1-yl)acetamido)propanamide], the inhibition at 2 µM in the data set on HIV-IIIb is 100%. The CC50 at 5 days in data set [1] was 19.2 µM.

`CN(C(=O)[C@H](Cc1ccccn1)NC(=O)Cn1nc(C(F)(F)F)c2c1CCCC2)c1ccccc1` [Compound 7]: the inhibition at 2 µM with HIV-IIIb is 1%. Further, the CC50 at 5 days in data set [1] was > 53 µM.

As for `CN(C(=O)[C@H](Cc1csc2ccccc12)NC(=O)Cn1nc(C(F)(F)F)c2c1CCCC2)c1ccccc1` [Compound 10, (S)-3-(benzo[b]thiophen-3-yl)-N-methyl-N-phenyl-2-(2-(3-(trifluoromethyl)-4,5,6,7-tetrahydro-1H-indazol-1-yl)acetamido)propanamide], the inhibition at 2 µM in the data set with HIV-IIIb is 2%. For the same compound, the CC50 at 5 days in data set [1] is 10.5 µM.

Take `CN(C(=O)[C@H](Cc1ccccc1)NC(=O)Cn1nc(C(F)(F)F)c2c1CCCCC2)c1ccccc1` [Compound 13]: the inhibition at 2 µM in the data set on HIV-IIIb is 87%. Also, the midpoint of cytotoxicity in data set [1], the CC50 at 5 days, lay at 22.2 µM.

`CN(C(=O)[C@H](Cc1ccncc1)NC(=O)Cn1nc(C(F)(F)F)c2c1CCCC2)c1ccccc1` [Compound 5]: in the data set on HIV-IIIb, the inhibition at 2 µM was 0%. In addition, the CC50 at 5 days in data set [1] is > 53 µM.

With `COc1ccc(N(C)C(=O)[C@H](Cc2cc(F)cc(F)c2)NC(=O)Cn2nc(C(F)(F)F)c3c2CCC(=O)C3)cc1` [Compound 28, (S)-3-(3,5-difluorophenyl)-N-(4-methoxyphenyl)-N-methyl-2-(2-(5-oxo-3-(trifluoromethyl)-4,5,6,7-tetrahydro-1H-indazol-1-yl)acetamido)propanamide], in the data set on HIV-IIIb, the inhibition at 2 µM was 76%. For the same compound, in data set [1], the CC50 at 5 days stood at 37.2 µM.

As for `CN(C(=O)[C@H](Cc1ccsc1)NC(=O)Cn1nc(C(F)(F)F)c2c1CCCC2)c1ccccc1` [Compound 22, (S)—N-methyl-N-phenyl-3-(thiophen-3-yl)-2-(2-(3-(trifluoromethyl)-4,5,6,7-tetrahydro-1H-indazol-1-yl)acetamido)propanamide], the inhibition at 2 µM with HIV-IIIb is 94%. In data set [1], this compound had a CC50 at 5 days of 25 µM.

Take `COc1ccc(N(C)C(=O)[C@H](Cc2cc(F)cc(F)c2)NC(=O)Cn2nc(C(F)(F)F)c3c2CCCC3)cc1` [Compound 4, (S)-3-(3,5-difluorophenyl)-N-(4-methoxyphenyl)-N-methyl-2-(2-(3-(trifluoromethyl)-4,5,6,7-tetrahydro-1H-indazol-1-yl)acetamido)propanamide]: the inhibition at 2 µM with HIV-IIIb was 100%. Also, the half-maximal cytotoxic concentration (CC50) at 5 days in data set [1] was determined as 12.5 µM.

`COc1ccc(N(C)C(=O)[C@H](Cc2cc(F)cc(F)c2)NC(=O)Cn2nc(C(F)(F)F)c3c2CCC2(C3)OCCO2)cc1` [Compound 27]: the inhibition at 2 µM with HIV-IIIb is 32%. The same compound gave a CC50 at 5 days in data set [1] of 19.9 µM.

In the case of `CN(C(=O)[C@H](Cc1cccc(Br)c1)NC(=O)Cn1nc(C(F)(F)F)c2c1CCCC2)c1ccccc1` [Compound 19, (S)-3-(3-bromophenyl)-N-methyl-N-phenyl-2-(2-(3-(trifluoromethyl)-4,5,6,7-tetrahydro-1H-indazol-1-yl)acetamido)propanamide], the inhibition at 2 µM in the data set with HIV-IIIb is 27%. This compound also had a CC50 at 5 days in data set [1] of 17.3 µM.

Regarding `CN(C(=O)[C@H](CC1CCOCC1)NC(=O)Cn1nc(C(F)(F)F)c2c1CCCC2)c1ccccc1` [Compound 20, (S)—N-methyl-N-phenyl-3-(tetrahydro-2H-pyran-4-yl)-2-(2-(3-(trifluoromethyl)-4,5,6,7-tetrahydro-1H-indazol-1-yl)acetamido)propanamdide], the inhibition at 2 µM in the data set with HIV-IIIb is 0%. Further, in data set [1], the CC50 at 5 days was > 53 µM.

As for `CN(C(=O)[C@H](Cc1cccc([N+](=O)[O-])c1)NC(=O)Cn1nc(C(F)(F)F)c2c1CCCC2)c1ccccc1` [Compound 17, (S)—N-methyl-3-(3-nitrophenyl)-N-phenyl-2-(2-(3-(trifluoromethyl)-4,5,6,7-tetrahydro-1H-indazol-1-yl)acetamido)propanamide], the inhibition at 2 µM in the data set with HIV-IIIb was 0%. The compound also yielded a CC50 at 5 days in data set [1] of 19.2 µM.

Regarding `COc1ccc(N(C)C(=O)[C@H](Cc2ccccc2)NC(=O)Cn2nc(C(F)(F)F)c3c2CCCC3)cc1` [Compound 2], the inhibition at 2 µM in the data set with HIV-IIIb is 100%. The midpoint of cytotoxicity in data set [1], the CC50 at 5 days, lay at 18.4 µM.

On to `CN(C(=O)[C@H](Cc1cccc(Cl)c1)NC(=O)Cn1nc(C(F)(F)F)c2c1CCCC2)c1ccccc1` [Compound 16, (S)-3-(3-chlorophenyl)-N-methyl-N-phenyl-2-(2-(3-(trifluoromethyl)-4,5,6,7-tetrahydro-1H-indazol-1-yl)acetamido)propanamide], for which the inhibition at 2 µM with HIV-IIIb is 58%. Further, the CC50 at 5 days in data set [1] worked out at 16.7 µM.

On to `CN(C(=O)[C@H](Cc1cccs1)NC(=O)Cn1nc(C(F)(F)F)c2c1CCCC2)c1ccccc1` [Compound 8], for which the inhibition at 2 µM with HIV-IIIb is 95%. In data set [1], this compound yielded a CC50 at 5 days of 25.6 µM.

Take `CN(C(=O)[C@H](Cc1ccccc1)NC(=O)Cn1nc(C(F)(F)F)c2c1CCCC2)c1ccc2ccccc2c1` [Compound 3, (S)—N-methyl-N-(naphthalen-2-yl)-3-phenyl-2-(2-(3-(trifluoromethyl)-4,5,6,7-tetrahydro-1H-indazol-1-yl)acetamido)propanamide]: the inhibition at 2 µM in the data set on HIV-IIIb was 79%. The same compound registered a CC50 at 5 days in data set [1] of 11.1 µM.

`CN(C(=O)[C@H](Cc1cccc(C(N)=O)c1)NC(=O)Cn1nc(C(F)(F)F)c2c1CCCC2)c1ccccc1` [Compound 18, (S)-3-(3-(methyl(phenyl)amino)-3-oxo-2-(2-(3-(trifluoromethyl)-4,5,6,7-tetrahydro-1H-indazol-1-yl)acetamido)propyl)benzamide]: the inhibition at 2 µM with HIV-IIIb is 0%. In addition, in data set [1], the CC50 at 5 days is > 53 µM.

Turning to `COc1ccc(N(C)C(=O)[C@H](Cc2cc(F)cc(F)c2)NC(=O)Cn2ncc3c2CCCC3)cc1` [Compound 31, (S)-3-(3,5-difluorophenyl)-N-(4-methoxyphenyl)-N-methyl-2-(2-(4,5,6,7-tetrahydro-1H-indazol-1-yl)acetamido)propanamide], the inhibition at 2 µM with HIV-IIIb was 78%. Also, the CC50 at 5 days in data set [1] is > 53 µM.

`CN(C(=O)[C@H](Cc1cccc(C#N)c1)NC(=O)Cn1nc(C(F)(F)F)c2c1CCCC2)c1ccccc1` [Compound 15, (S)-3-(3-cyanophenyl)-N-methyl-N-phenyl-2-(2-(3-(trifluoromethyl)-4,5,6,7-tetrahydro-1H-indazol-1-yl)acetamido)propanamide]: the inhibition at 2 µM in the data set with HIV-IIIb is 26%. In data set [1], half-maximal cytotoxicity (CC50 at 5 days) was put at 26.3 µM.

`CN(C(=O)[C@H](Cc1cscn1)NC(=O)Cn1nc(C(F)(F)F)c2c1CCCC2)c1ccccc1` [Compound 11, (S)—N-methyl-N-phenyl-3-(thiazol-4-yl)-2-(2-(3-(trifluoromethyl)-4,5,6,7-tetrahydro-1H-indazol-1-yl)acetamido)propanamide]: the inhibition at 2 µM with HIV-IIIb was 21%. The CC50 at 5 days in data set [1] is > 53 µM.

On to `CN(C(=O)[C@H](Cn1cccn1)NC(=O)Cn1nc(C(F)(F)F)c2c1CCCC2)c1ccccc1` [Compound 12, (S)—N-methyl-N-phenyl-3-(1H-pyrazol-1-yl)-2-(2-(3-(trifluoromethyl)-4,5,6,7-tetrahydro-1H-indazol-1-yl)acetamido)propanamide], for which, in the data set on HIV-IIIb, the inhibition at 2 µM was 10%. In addition, in data set [1], the CC50 at 5 days was > 53 µM.

As to `CN(C(=O)[C@H](Cc1cc(F)cc(F)c1)NC(=O)Cn1nc(C(F)(F)F)c2c1C(F)(F)C1CC21)c1ccc2c(c1)CNC2=O` (stereo partly drawn) [Compound 34, (2S)-2-(2-(5,5-difluoro-3-(trifluoromethyl)-3b,4,4a,5-tetrahydro-1H-cyclopropa[3,4]cyclopenta[1,2-c]pyrazol-1-yl)acetamido)-3-(3,5-difluorophenyl)-N-methyl-N-(1-oxoisoindolin-5-yl)propanamide], the inhibition at 2 µM with HIV-IIIb was 97%. For the same compound, in data set [1], the CC50 at 5 days was > 53 µM.

For `COc1ccc(N(C)C(=O)[C@H](Cc2cc(F)cc(F)c2)NC(=O)Cn2nc(C(F)(F)F)c3c2CC(C)CC3)cc1` (stereo partly drawn) [Compound 25, (2S)-3-(3,5-difluorophenyl)-N-(4-methoxyphenyl)-N-methyl-2-(2-(6-methyl-3-(trifluoromethyl)-4,5,6,7-tetrahydro-1H-indazol-1-yl)acetamido)propanamide], the inhibition at 2 µM with HIV-IIIb was 100%. Further, the midpoint of cytotoxicity in data set [1], the CC50 at 5 days, lay at 11.1 µM.

Turning to `CN(C(=O)[C@H](Cc1cncn1C)NC(=O)Cn1nc(C(F)(F)F)c2c1CCCC2)c1ccccc1` [Compound 9], the inhibition at 2 µM with HIV-IIIb is 5%. Further, in data set [1], the CC50 at 5 days was > 53 µM.

Usually inhibition stands for the percentage by which the read-out fell short of the control. The term CC50 denotes the concentration giving 50% cytotoxicity. A higher CC50 goes with lower toxicity to the cells.
